What all share (type): biochemical, Medicago truncatula
For experiment [1], the system named is T1, MtHCT2.
T1 construct: gene HCT2
In words: HPLC product assay, forward HCT reaction. To be noted: 500 µM shikimic acid, 100 mM sodium phosphate pH 7.5, 500 µM DTT; kcat apparent. The source says:
HPLC product assay, forward HCT reaction on MtHCT2

The test system of experiment [2] is T2, MtHCT1.
T2 construct: gene HCT1
Put plainly: HPLC product assay, forward HCT reaction. Conditions: 500 µM shikimic acid, 100 mM sodium phosphate pH 7.5, 500 µM DTT; kcat apparent. The source says:
HPLC product assay, forward HCT reaction on MtHCT1

Experiment [3] relates to T2, MtHCT1. Put plainly: HPLC product assay, reverse HCT reaction. Conditions: 500 µM CoA, 100 mM sodium phosphate pH 7.5, 500 µM DTT; kcat apparent; substrate tested 20 to 400 µM. The text has this: HPLC product assay, reverse HCT reaction on MtHCT1
Experiment [4] relates to T1, MtHCT2. In words: HPLC product assay, reverse HCT reaction. To be noted: 500 µM CoA, 100 mM sodium phosphate pH 7.5, 500 µM DTT; kcat apparent; substrate tested 20 to 400 µM. The text has this: HPLC product assay, reverse HCT reaction on MtHCT2

With `CC(C)(COP(=O)(O)OP(=O)(O)OC[C@H]1O[C@@H](n2cnc3c(N)ncnc32)[C@H](O)[C@@H]1OP(=O)(O)O)[C@@H](O)C(=O)NCCC(=O)NCCSC(=O)/C=C/c1ccc(O)cc1` [4-coumaroyl CoA], the Km with MtHCT2 [1] came to 44.3 µM; with MtHCT1 [2], 40.6 µM.

`O=C(/C=C/c1ccc(O)c(O)c1)O[C@@H]1CC(C(=O)O)=C[C@@H](O)[C@H]1O` [caffeoyl shikimate]: the results for the Km in the experiment on MtHCT1 [3] and with MtHCT2 [4] were 148 µM and 139 µM, respectively.

The values are drawn from PMC7913460, “Targeting hydroxycinnamoyl CoA: shikimate hydroxycinnamoyl transferase for lignin modification in Brachypodium distachyon” (Biotechnology for Biofuels, 2021).
